Experimental findings from patent US20240293562A1, “METHODS FOR USING NEUROTROPHIN RECEPTOR BINDING CONJUGATE COMPOSITIONS IN THE TREATMENT OF A NEUROLOGICAL CONDITION” (Manzanita Pharmaceuticals, Inc., priority 2020, published 2024) are described below.

This assay has as its system Superior cervical ganglia (SCG) neurons. Nature of the assay: Bioassay of neuronal survival in primary superior cervical ganglia neurons. In kind it is cell-based, Sprague Dawley rat. The settings on record: primary SCG neurons from E-21 rat pups, microfluidic devices. An excerpt: The SCG assay was adapted to compartmented cultures and updated to grow primary neurons in microfluidic devices SCG neurons were harvested from E-21 Sprague Dawley rat pups. If labeled NGF has similar bioavailability to the unlabeled NGF, i.e., TrkA binding sites remain intact. FIG. 2 (right) compares left panels of study article with right panels showing treatment with NGF only.

Turning to nerve growth factor [NGF], the neuronal survival entry is listed as “appear to show neuronal survival”.
